These results are taken from PMC9650428, “Mutagenesis and functional analysis of SotB: A multidrug transporter of the major facilitator superfamily from Escherichia coli” (Frontiers in Microbiology, 2022).

One test addresses T1, SotB W119A (Escherichia coli, UniProt P31122, W119A).
T1 construct: The full-length sotB and lapC genes from the E. coli MG1655 genome were subcloned into the cloning vector pET28a; 8xHis (C); made in house; host or cells: E. coli C43(DE3)
T1 sequence (P31122 1-396 W119A): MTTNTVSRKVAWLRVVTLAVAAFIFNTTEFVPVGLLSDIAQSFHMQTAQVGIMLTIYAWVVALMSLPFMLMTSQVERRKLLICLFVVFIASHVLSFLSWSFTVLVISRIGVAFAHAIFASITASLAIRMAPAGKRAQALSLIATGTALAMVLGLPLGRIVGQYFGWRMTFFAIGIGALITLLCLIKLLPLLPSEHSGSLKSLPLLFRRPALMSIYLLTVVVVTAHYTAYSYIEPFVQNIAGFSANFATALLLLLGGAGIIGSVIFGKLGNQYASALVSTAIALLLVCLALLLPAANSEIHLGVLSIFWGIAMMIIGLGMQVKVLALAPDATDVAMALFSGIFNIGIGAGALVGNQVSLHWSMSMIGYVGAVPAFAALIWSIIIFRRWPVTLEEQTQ
As to the kind of experiment: SPR affinity assay, SotB variant W119A. The conditions noted are these: read-out: KD, binding affinity with W119A. On the procedure: (§1) The instrument used in surface plasmon resonance (SPR) affinity assays was OpenSPR (Nicoya, Canada) and the chip used was COOH sensor chip (Nicoya, Canada). SotB and its variants were as ligands. IPTG, L-arabinose, D-xylose, D-glucose, D-fructose, and D-mannose were as small molecules. Using HSB-EP buffer (10 mM HEPES, 150 mM NaCl, 3 mM EDTA, 0.005% Tween-20, pH7.4) as test buffer and setting flow rate 150 μl/min after installed COOH chip according to OpenSPRTM instrument standard operating procedure. After the signal baseline was reached, loading 200 μl 80% isopropyl alcohol and ran for 10 s to drain bubbles. After reaching baseline, the sample ring was rinsed with HSB-EP buffer and emptied with air. After the signal reached the baseline, loading 200 μl EDC (400 mM, Sigma)/NHS (100 mM, Sigma; 1:1) solution with a flow rate 20 μl/min for 4 min. Then, loading 200 μl ligand (SotB/SotB variants) diluted by the activation buffer (sodium acetate, 10 mM, pH3.5) and ran for 4 min (20 μl/min). Then the sample ring was rinsed with HSB-EP buffer and emptied with air. Loading 200 μl 1 M ethanolamine (Sigma) blocking solution (20 μl/min, 4 min), rinsed the sample ring with HSB-EP buffer, and emptied the sample ring with air. Observing baseline for 5 min to ensure stability. […]

Another test concerns the target T2, SotB N343A (Escherichia coli, UniProt P31122, N343A).
T2 construct: The full-length sotB and lapC genes from the E. coli MG1655 genome were subcloned into the cloning vector pET28a; 8xHis (C); made in house; host or cells: E. coli C43(DE3)
T2 sequence (P31122 1-396 N343A): T1 sequence (P31122 1-396 W119A) with A119W, N343A
As to the kind of experiment: SPR affinity assay, SotB variant N343A. In kind it is binding. On the procedure: The instrument used in surface plasmon resonance (SPR) affinity assays was OpenSPR (Nicoya, Canada) and the chip used was COOH sensor chip (Nicoya, Canada). SotB and its variants were as ligands. IPTG, L-arabinose, D-xylose, D-glucose, D-fructose, and D-mannose were as small molecules. Using HSB-EP buffer (10 mM HEPES, 150 mM NaCl, 3 mM EDTA, 0.005% Tween-20, pH7.4) as test buffer and setting flow rate 150 μl/min after installed COOH chip according to OpenSPRTM instrument standard operating procedure. After the signal baseline was reached, loading 200 μl 80% isopropyl alcohol and ran for 10 s to drain bubbles. After reaching baseline, the sample ring was rinsed with HSB-EP buffer and emptied with air. After the signal reached the baseline, loading 200 μl EDC (400 mM, Sigma)/NHS (100 mM, Sigma; 1:1) solution with a flow rate 20 μl/min for 4 min. Then, loading 200 μl ligand (SotB/SotB variants) diluted by the activation buffer (sodium acetate, 10 mM, pH3.5) and ran for 4 min (20 μl/min). Then the sample ring was rinsed with HSB-EP buffer and emptied with air. Loading 200 μl 1 M ethanolamine (Sigma) blocking solution (20 μl/min, 4 min), rinsed the sample ring with HSB-EP buffer, and emptied the sample ring with air. Observing baseline for 5 min to ensure stability. The small molecules were diluted with PBS buffer (2 mM of KH2PO4, 10 mM of Na2HPO4, 2.7 mM of KCl, and 137 mM of NaCl at pH 7.4), and the concentration was shown in the experimental results. The flow rate for small molecules was performed at 20 μl/min. The binding time of small molecule and ligand was 240 s, and the dissociation was 240 s. The analysis software used for the experimental results was TraceDrawer, and the analysis method was one-to-one analysis model.

The test system of test [1] is sotB-deletion E. coli MG1655 strain. As to the kind of experiment: Growth curve (L-arabinose inhibition) assay, sotB-deletion MG1655. In kind it is cell-based, Escherichia coli. The source says: In the process of sotB gene knockout, two plasmids were introduced into E. coli MG1655 strain: the plasmid pEcCas expressing Cas9 protein (kanamycin resistance) and the plasmid pEcgRNA/sotB expressing related gRNA (spectinomycin resistance). The pEcCas plasmid was successfully eliminated in this study. […] Thus, the sotB-deletion strain has resistance to spectinomycin. In order to carry out the related L-arabinose inhibition assay more strictly, the same plasmid (pEcgRNA/sotB) was then transformed into intact E. coli MG1655 cells, and the growth conditions of the two strains were measured as follows: The E. coli MG1655 cells (intact cells and sotB-deletion cells) were grown in liquid LB medium containing spectinomycin (50 μg/ml) at 37°C for overnight. The cells were then diluted to an OD600 value of 0.8 with liquid LB medium containing spectinomycin (50 μg/ml). Then, the cells were further diluted 1,000 times with liquid LB medium containing spectinomycin (50 μg/ml). The diluted cells were added to a 96-well plate (200 μl/well). Then, L-arabinose was added with final concentrations of 0 μM, 10 μM, 100 μM, 1 mM, 10 mM, and 100 mM, respectively. The 96-well plate was incubated at 37°C, and the OD600 value was measured every 1 h with a microplate reader. […]

The next test concerns the target T3, SotB E29A (Escherichia coli, UniProt P31122, E29A).
T3 construct: The full-length sotB and lapC genes from the E. coli MG1655 genome were subcloned into the cloning vector pET28a; 8xHis (C); made in house; host or cells: E. coli C43(DE3)
T3 sequence (P31122 1-396 E29A): T1 sequence (P31122 1-396 W119A) with E29A, A119W
As to the kind of experiment: SPR affinity assay, SotB variant E29A. As to conditions: read-out: KD, binding affinity with E29A. On the procedure: as §1

Usually pKd stands for the negative decadic logarithm of the Kd, by convention in mol/L.

Where a chain is given by its changes, count along the chain named. pKd: −log10 of the molar value.

As to `OC1OC[C@H](O)[C@H](O)[C@H]1O` (mixture of isomers) [L-arabinose], the pKd was 2.31 at SotB W119A; 1.84 on SotB N343A (SotB variant N343A, read-out: KD, binding affinity with N343A); 2.29 at SotB E29A. For the same compound, on SotB N343A (N343A vs wild-type SotB), the “Binding affinity of N343A, fold lower than the wild-type protein” value came out at 3.5 fold. Further, the “Effect on growth (OD600 growth curve)” value in test [1] (sotB-deletion MG1655, 10 mM final concentration) is recorded as “significantly inhibit”; in test [1] (sotB-deletion MG1655, 100 mM final concentration), “significantly inhibit”.
